Structures are written as SMILES. Read-outs that look alike come from different tables or passages of the source.

This note sets out measurements from patent publication US20260078120A1, “SUBSTITUTED PYRIDOPYRIMIDINONES” (MIRATI THERAPEUTICS, INC., priority 2022, published 2026).

The subject of experiment [1] is SKBR3 (PI3Kα wild type) cells. The experiment can be described thus: CellTiter-Glo 2.0 luminescent cell viability assay, 72 hours, SKBR3 cells. It is filed as cell-based. How it is done: (§1) The ability of a compound of Formula (I) to decrease the viability of cells was measured using CellTiter-Glo 2.0 (CTG) Luminescent Cell Viability Assay (#G9241) obtained from Promega (Madison, WI).
To prepare assay plates for viability assays, cells were trypsinized, resuspended in fresh media, and viable cells were counted utilizing trypan blue exclusion.
(§2) Assay day 1, cells were dosed using an Echo Liquid Handler (Beckman Coulter) with compounds at a 10 um starting concentration and serially diluted (1:4) for a total of 10 concentrations. Cells were incubated for approximately 72 hours with the compounds (solubilized in DMSO) at 37° C. After 72 hours of treatment, cell plates were equilibrated to room temperature before adding 15 μl of CTG to each well, plates were then covered in aluminum foil to protect from light, incubated at room temperature for 30 minutes on a microtiter plate shaker, and luminescence readings were collected using a CLARIOstar microplate reader (BMG Labtech, Germany). Percent of vehicle control values were plotted as log (inhibitor) vs. response-Variable slope (four parameters) for curve fitting and IC50 values were determined using XLfit.

Experiment [2] has as its system T47D (PI3Kα H1047R mutant) cells. The experiment can be described thus: CellTiter-Glo 2.0 luminescent cell viability assay, 72 hours, T47D cells. It is filed as cell-based. How it is done:
This Example illustrates that exemplary compounds of the present invention decrease the viability of cells.
as §1
To prepare assay plates for viability assays, cells were trypsinized, resuspended in fresh media, and viable cells were counted utilizing trypan blue exclusion. T47D, SKBR3, or MKN1 cells were seeded at 1000 cells in 30 μl per well in a solid white flat bottom 384 cell culture plate (Perkin Elmer #6007680) and incubated at 37° C. overnight.
as §2

Where [3] appears, read: Homo sapiens, SK-BR-3, 72 h, SKBR3 (PI3Kα wild type) cells, CellTiter-Glo, approximately 72 hours, read-out: SKBR3 (WT) Viability IC50.
Setting [4] is: Homo sapiens, T47D, 72 h, T47D (PI3Kα H1047R mutant) cells, CellTiter-Glo, approximately 72 hours, read-out: T47D (H1047R mutant) Viability IC50.

For the compound `Cc1cc([C@@H](C)Nc2ccccc2C(=O)O)c2nc(N3CCN(c4cccc(C#N)c4C)CC3)c(C)c(=O)n2c1` [Example 11-438, (R)-2-((1-(2-(4-(3-cyano-2-methylphenyl)piperazin-1-yl)-3,7-dimethyl-4-oxo-4H-pyrido[1,2-a]pyrimidin-9-yl)ethyl)amino)benzoic acid], the results for the half-inhibitory concentration (IC50) in experiment [1] (setting [3]) and in experiment [2] (setting [4]) were more than 10000 nM and 188 nM, respectively.

For `Cc1cc(C(C)Nc2ccccc2C(=O)O)c2nc(N3CCN(c4ccccc4)CC3)cc(=O)n2c1` (centres unmarked) [Example 11-335, 2-((1-(7-methyl-4-oxo-2-(4-phenylpiperazin-1-yl)-4H-pyrido[1,2-a]pyrimidin-9-yl)ethyl)amino)benzoic acid], the half-maximal inhibitory concentration (IC50) is more than 10000 nM in experiment [1] (setting [3]) and 386 nM in experiment [2] (setting [4]).

Regarding `COc1cc(=O)n2cc(C)cc(C(C)Nc3ccccc3C(=O)O)c2n1` (centres unmarked) [Example 11-372, 2-((1-(2-methoxy-7-methyl-4-oxo-4H-pyrido[1,2-a]pyrimidin-9-yl)ethyl)amino)benzoic acid], the IC50 in experiment [1] (setting [3]) and in experiment [2] (setting [4]) was more than 10000 nM in each case.

For the compound `Cc1cc(C(C)Nc2ccccc2C(=O)O)c2nc(N3CCOCC3)cc(=O)n2c1` (centres unmarked) [Example 11-420, 2-((1-(7-methyl-2-morpholino-4-oxo-4H-pyrido[1,2-a]pyrimidin-9-yl)ethyl)amino)benzoic acid], the IC50 in experiment [1] (Homo sapiens, SK-BR-3, 72 h, read-out: SKBR3 (WT) Viability IC50 (nM)) is more than 10000 nM; in experiment [2] (Homo sapiens, T47D, 72 h, read-out: T47D (H1047R mutant) Viability IC50 (nM)) it was 1310 nM.

For `Cc1cc([C@@H](C)Nc2ccccc2C(=O)O)c2nc(Cl)c(C#N)c(=O)n2c1` [Example 11-243, (R)-2-((1-(2-chloro-3-cyano-7-methyl-4-oxo-4H-pyrido[1,2-a]pyrimidin-9-yl)ethyl)amino)benzoic acid], the results for the IC50 in experiment [1] (setting [3]) and in experiment [2] (setting [4]) were more than 10000 nM and 7900 nM, respectively.

For `Cc1cc([C@@H](C)Nc2ccc(Cl)nc2C(=O)O)c2nc(N3CCN(c4ccc(C#N)cc4C)CC3)c(C)c(=O)n2c1` [Example 11-133, (R)-6-chloro-3-((1-(2-(4-(4-cyano-2-methylphenyl)piperazin-1-yl)-3,7-dimethyl-4-oxo-4H-pyrido[1,2-a]pyrimidin-9-yl)ethyl)amino)picolinic acid], the IC50 in experiment [1] (setting [3]) stood at 10000 nM; in experiment [2] (setting [4]), 174 nM.

In the case of `Cc1cc([C@H](C)Nc2ccccc2C(=O)O)c2nc(N3Cc4ccccc4C3)cc(=O)n2c1` [Example 11-406, (S)-2-((1-(2-(isoindolin-2-yl)-7-methyl-4-oxo-4H-pyrido[1,2-a]pyrimidin-9-yl)ethyl)amino)benzoic acid], the figures for the IC50 in experiment [1] (setting [3]) and in experiment [2] (setting [4]) were more than 10000 nM and 864 nM, respectively.

Regarding `Cc1cc([C@@H](C)Nc2ccccc2C(=O)O)c2nc(-c3cn(C)cn3)c(C)c(=O)n2c1` [Example 11-234, (R)-2-((1-(3,7-dimethyl-2-(1-methyl-1H-imidazol-4-yl)-4-oxo-4H-pyrido[1,2-a]pyrimidin-9-yl)ethyl)amino)benzoic acid], the IC50 in experiment [1] (setting [3]) is more than 10000 nM; in experiment [2] (setting [4]) it was 999 nM.

As to `Cc1cc([C@@H](C)Nc2ccccc2C(=O)O)c2nc(N3CCN(c4ccccc4F)CC3)c(C)c(=O)n2c1` [Example 11-440, (R)-2-((1-(2-(4-(2-fluorophenyl)piperazin-1-yl)-3,7-dimethyl-4-oxo-4H-pyrido[1,2-a]pyrimidin-9-yl)ethyl)amino)benzoic acid], the results for the IC50 in experiment [1] (setting [3]) and in experiment [2] (setting [4]) were more than 10000 nM and 252 nM, respectively.

As for `Cc1cc([C@@H](C)Nc2ccccc2C(=O)O)c2nc(N3CCN(c4ccccc4C#N)CC3)c(C#N)c(=O)n2c1` [Example 11-260, (R)-2-((1-(3-cyano-2-(4-(2-cyanophenyl)piperazin-1-yl)-7-methyl-4-oxo-4H-pyrido[1,2-a]pyrimidin-9-yl)ethyl)amino)benzoic acid], the IC50 in experiment [1] (setting [3]) is more than 10000 nM; in experiment [2] (setting [4]), 368 nM.

In the case of `Cc1c(N2Cc3ccccc3C2)nc2c([C@@H](C)Nc3ccccc3C(=O)O)cc(Cl)cn2c1=O` [Example 11-291, (R)-2-((1-(7-chloro-2-(isoindolin-2-yl)-3-methyl-4-oxo-4H-pyrido[1,2-a]pyrimidin-9-yl)ethyl)amino)benzoic acid], the IC50 in experiment [1] (setting [3]) is more than 10000 nM; in experiment [2] (setting [4]), 117 nM.

As to `Cc1cc([C@@H](C)Nc2ccccc2C(=O)O)c2nc(N3CC[C@H]3CF)c(C)c(=O)n2c1` [Example 11-94, 2-(((R)-1-(2-((S)-2-(fluoromethyl)azetidin-1-yl)-3,7-dimethyl-4-oxo-4H-pyrido[1,2-a]pyrimidin-9-yl)ethyl)amino)benzoic acid], the figures for the IC50 in experiment [1] (setting [3]) and in experiment [2] (setting [4]) were more than 10000 nM and 185 nM, respectively.

In the case of `Cc1cc([C@@H](C)Nc2ccccc2C(=O)O)c2nc(N3CCC(c4ccccc4)C3)c(C)c(=O)n2c1` (stereo partly drawn) [Example 11-14, 2-(((1R)-1-(3,7-dimethyl-4-oxo-2-(3-phenylpyrrolidin-1-yl)-4H-pyrido[1,2-a]pyrimidin-9-yl)ethyl)amino)benzoic acid], the IC50 was more than 10000 nM in experiment [1] (setting [3]) and 233 nM in experiment [2] (setting [4]).

In the case of `Cc1cc([C@H](C)Nc2ccc(F)nc2C(=O)O)c2nc(N3CCC(F)(F)CC3)c(C#N)c(=O)n2c1` [Example 11-43, (S)-3-((1-(3-cyano-2-(4,4-difluoropiperidin-1-yl)-7-methyl-4-oxo-4H-pyrido[1,2-a]pyrimidin-9-yl)ethyl)amino)-6-fluoropicolinic acid], the 50% inhibitory concentration (IC50) in experiment [1] (setting [3]) is more than 10000 nM; in experiment [2] (setting [4]) it was 372 nM.

`Cc1cc([C@@H](C)Nc2ccccc2C(=O)O)c2nc(N3CC(C(F)(F)F)C3)c(C)c(=O)n2c1` [Example 11-107, (R)-2-((1-(3,7-dimethyl-4-oxo-2-(3-(trifluoromethyl)azetidin-1-yl)-4H-pyrido[1,2-a]pyrimidin-9-yl)ethyl)amino)benzoic acid]: the IC50 in experiment [1] (setting [3]) was more than 10000 nM; in experiment [2] (setting [4]) it was 137 nM.

Consider `Cc1cc([C@@H](C)Nc2ccccc2C(=O)O)c2nc(N3Cc4cccc(F)c4C3)c(C)c(=O)n2c1` [Example 11-38, (R)-2-((1-(2-(4-fluoroisoindolin-2-yl)-3,7-dimethyl-4-oxo-4H-pyrido[1,2-a]pyrimidin-9-yl)ethyl)amino)benzoic acid], for which the IC50 is more than 10000 nM in experiment [1] (setting [3]) and 194 nM in experiment [2] (setting [4]).

Turning to `Cc1cc([C@@H](C)Nc2ccc(F)c(F)c2C(=O)O)c2nc(N3CCC(F)(F)CC3)c(C#N)c(=O)n2c1` [Example 11-88, (R)-6-((1-(3-cyano-2-(4,4-difluoropiperidin-1-yl)-7-methyl-4-oxo-4H-pyrido[1,2-a]pyrimidin-9-yl)ethyl)amino)-2,3-difluorobenzoic acid], the IC50 was more than 10000 nM in experiment [1] (setting [3]) and 1650 nM in experiment [2] (setting [4]).

For the compound `Cc1cc([C@@H](C)Nc2ccccc2C(=O)O)c2nc(N3CC(F)(F)C[C@@H]3C)c(C)c(=O)n2c1` [Example 11-126, 2-(((R)-1-(2-((S)-4,4-difluoro-2-methylpyrrolidin-1-yl)-3,7-dimethyl-4-oxo-4H-pyrido[1,2-a]pyrimidin-9-yl)ethyl)amino)benzoic acid], the IC50 in experiment [1] (setting [3]) is more than 10000 nM; in experiment [2] (setting [4]) it was 347 nM.

As to `Cc1cc([C@@H](C)Nc2ccccc2C(=O)O)c2nc(N3CCN(c4cn(C)nc4C(F)(F)F)CC3)c(C#N)c(=O)n2c1` [Example 11-173, (R)-2-((1-(3-cyano-7-methyl-2-(4-(1-methyl-3-(trifluoromethyl)-1H-pyrazol-4-yl)piperazin-1-yl)-4-oxo-4H-pyrido[1,2-a]pyrimidin-9-yl)ethyl)amino)benzoic acid], the results for the half-maximal inhibitory concentration (IC50) in experiment [1] (setting [3]) and in experiment [2] (setting [4]) were more than 10000 nM and 145 nM, respectively.

`Cc1cc([C@@H](C)Nc2ccccc2C(=O)O)c2nc(NCC3CC3)c(C)c(=O)n2c1` [Example 11-207, (R)-2-((1-(2-((cyclopropylmethyl)amino)-3,7-dimethyl-4-oxo-4H-pyrido[1,2-a]pyrimidin-9-yl)ethyl)amino)benzoic acid]: the half-inhibitory concentration (IC50) was more than 10000 nM in experiment [1] (setting [3]) and 342 nM in experiment [2] (setting [4]).

In the case of `Cc1cc([C@@H](C)Nc2ccccc2C(=O)O)c2nc(N3CCC4(CCOC4)CC3)c(C)c(=O)n2c1` [Example 11-62, (R)-2-((1-(3,7-dimethyl-4-oxo-2-(2-oxa-8-azaspiro[4.5]decan-8-yl)-4H-pyrido[1,2-a]pyrimidin-9-yl)ethyl)amino)benzoic acid], the IC50 in experiment [1] (SKBR3 (PI3Kα wild type) cells, CellTiter-Glo, approximately 72 hours, read-out: SKBR3 (WT) Viability IC50) was more than 10000 nM; in experiment [2] (T47D (PI3Kα H1047R mutant) cells, CellTiter-Glo, approximately 72 hours, read-out: T47D (H1047R mutant) Viability IC50), 173 nM.

For the compound `Cc1cc(C(C)Nc2ccccc2C(=O)O)c2nc(N3CCN(C)C(=O)C3)cc(=O)n2c1` (centres unmarked) [Example 11-384, 2-((1-(7-methyl-2-(4-methyl-3-oxopiperazin-1-yl)-4-oxo-4H-pyrido[1,2-a]pyrimidin-9-yl)ethyl)amino)benzoic acid], the IC50 in experiment [2] (setting [4]) was more than 10000 nM.

As for `Cc1cc(C(C)Nc2cccc(F)c2C(=O)O)c2nc(N3Cc4ccccc4C3)c(C)c(=O)n2c1` (centres unmarked) [Example 11-368, 2-fluoro-6-((1-(2-(isoindolin-2-yl)-3,7-dimethyl-4-oxo-4H-pyrido[1,2-a]pyrimidin-9-yl)ethyl)amino)benzoic acid], the IC50 in experiment [2] (setting [4]) came to 856 nM.
